The NIST ThermoML archive (doi:10.1016/j.jct.2005.12.010)
Values joined by “and” are separate entries in the source; they are usually repeats but may differ in a detail not shown here. Equal values may be shown once.

Legend:
[1] = 101 kPa, Liquid
[2] = xn = mol fraction of the nth substance listed; conditions: 101 kPa, Liquid

CCCCO [butan-1-ol]
[1]
Conditions | mass density [kg/m3] | speed of sound [m/s] | viscosity [mPa·s]
293.15 K | 809.5 | 1257 | 2.941
298.15 K | 805.75 | 1240 | 2.571
303.15 K | 801.8 | 1224 | 2.255

CCCCO [butan-1-ol] + CC1CCCC1
[2], x2 = 0
Conditions | speed of sound [m/s]
293.15 K | 1257
298.15 K | 1240
303.15 K | 1224

CCC(C)O (stereo unspecified) [butan-2-ol]
[1]
Conditions | mass density [kg/m3] | speed of sound [m/s] | viscosity [mPa·s]
293.15 K | 806.84 | 1230 | 3.623
298.15 K | 802.72 | 1212 | 2.995
303.15 K | 798.51 | 1194 | 2.493

CCC(C)O (stereo unspecified) [butan-2-ol] + CC1CCCC1
[2], x2 = 0
Conditions | speed of sound [m/s]
293.15 K | 1230
298.15 K | 1212
303.15 K | 1194

CCO [ethanol]
[1]
Conditions | mass density [kg/m3] | speed of sound [m/s] | viscosity [mPa·s]
293.15 K | 789.75 | 1162 | 1.187
298.15 K | 785.46 | 1145 | 1.082
303.15 K | 781.15 | 1128 | 0.987

CCO [ethanol] + CC1CCCC1
[2], x2 = 0
Conditions | mass density [kg/m3] | speed of sound [m/s]
293.15 K | 789.75 | 1162
298.15 K | 785.46 | 1145
303.15 K | 781.15 | 1128

CC1CCCC1 [methylcyclopentane]
[1]
Conditions | mass density | speed of sound [m/s] | viscosity [mPa·s]
293.15 K | 746.64 kg/m3 | 1197 | 0.504
298.15 K | 741.94 kg/m3 and 741.9 kg/m3 | 1174 | 0.476
303.15 K | 737.21 kg/m3 | 1150 | 0.45

CC1CCCC1 [methylcyclopentane] + CC(C)O
speed of sound [m/s], [2]
Conditions | 293.15 K | 298.15 K | 303.15 K
x1 = 0.0478 | 1154 | 1136 | 1118
x1 = 0.1003 | 1152 | 1134 | 1115
x1 = 0.2092 | 1150 | 1130 | 1110
x1 = 0.2989 | 1150 | 1129 | 1108
x1 = 0.4151 | 1150 | 1129 | 1108
x1 = 0.4967 | 1152 | 1131 | 1109
x1 = 0.603 | 1156 | 1134 | 1111
x1 = 0.7118 | 1162 | 1140 | 1117
x1 = 0.8061 | 1170 | 1147 | 1124
x1 = 0.9026 | 1180 | 1157 | 1134
x1 = 0.9555 | 1187 | 1164 | 1141
x1 = 1 | 1197 | 1174 | 1150

CC1CCCC1 [methylcyclopentane] + CCC(C)O
speed of sound [m/s], [2]
Conditions | 293.15 K | 298.15 K | 303.15 K
x1 = 0.0503 | 1223 | 1204 | 1186
x1 = 0.0966 | 1216 | 1198 | 1179
x1 = 0.198 | 1205 | 1185 | 1165
x1 = 0.3041 | 1194 | 1173 | 1153
x1 = 0.4088 | 1186 | 1164 | 1143
x1 = 0.5084 | 1180 | 1158 | 1137
x1 = 0.5961 | 1177 | 1155 | 1133
x1 = 0.7045 | 1176 | 1154 | 1132
x1 = 0.8151 | 1180 | 1157 | 1134
x1 = 0.9065 | 1185 | 1162 | 1139
x1 = 0.9532 | 1189 | 1166 | 1143
x1 = 1 | 1197 | 1174 | 1150

CC1CCCC1 [methylcyclopentane] + CCCC(C)O
speed of sound [m/s], [2]
Conditions | 293.15 K | 298.15 K | 303.15 K
x1 = 0.0484 | 1244 | 1225 | 1206
x1 = 0.0999 | 1236 | 1217 | 1198
x1 = 0.1949 | 1223 | 1203 | 1183
x1 = 0.3177 | 1207 | 1187 | 1167
x1 = 0.4017 | 1198 | 1178 | 1157
x1 = 0.4945 | 1190 | 1169 | 1149
x1 = 0.6131 | 1184 | 1163 | 1141
x1 = 0.7107 | 1183 | 1161 | 1139
x1 = 0.815 | 1183 | 1161 | 1138
x1 = 0.9083 | 1187 | 1164 | 1141
x1 = 0.9535 | 1190 | 1167 | 1144
x1 = 1 | 1197 | 1174 | 1150

CC1CCCC1 [methylcyclopentane] + CCCCO
speed of sound [m/s], [2]
Conditions | 293.15 K | 298.15 K | 303.15 K
x1 = 0.0485 | 1250 | 1233 | 1216
x1 = 0.0993 | 1243 | 1226 | 1208
x1 = 0.1973 | 1231 | 1213 | 1194
x1 = 0.3038 | 1219 | 1200 | 1180
x1 = 0.4036 | 1210 | 1190 | 1169
x1 = 0.5055 | 1202 | – | –
x1 = 0.5078 | – | 1181 | 1160
x1 = 0.6152 | 1195 | 1173 | 1151
x1 = 0.7053 | 1191 | 1169 | 1146
x1 = 0.8132 | 1189 | 1166 | 1143
x1 = 0.9096 | 1190 | 1166 | 1143
x1 = 0.9537 | 1191 | 1168 | 1145
x1 = 1 | 1197 | 1174 | 1150

CC1CCCC1 [methylcyclopentane] + CCCO
speed of sound [m/s], [2]
Conditions | 293.15 K | 298.15 K | 303.15 K
x1 = 0.0475 | 1217 | 1199 | 1182
x1 = 0.0967 | 1211 | 1193 | 1175
x1 = 0.2055 | 1201 | 1182 | 1163
x1 = 0.2984 | 1195 | 1175 | 1155
x1 = 0.4014 | 1189 | 1169 | 1148
x1 = 0.5007 | 1185 | 1164 | 1142
x1 = 0.6133 | 1183 | 1161 | 1139
x1 = 0.7115 | 1183 | 1160 | 1137
x1 = 0.8124 | 1184 | 1161 | 1138
x1 = 0.9073 | 1188 | 1164 | 1141
x1 = 0.9529 | 1191 | 1167 | 1144
x1 = 1 | 1197 | 1174 | 1150

CC1CCCC1 [methylcyclopentane] + CCO
[2]
Conditions | mass density, 293.15 K [kg/m3] | mass density, 298.15 K [kg/m3] | mass density, 303.15 K [kg/m3] | speed of sound, 293.15 K [m/s] | speed of sound, 298.15 K [m/s] | speed of sound, 303.15 K [m/s]
x1 = 0.0475 | 784.54 | 780.2 | 775.84 | 1156 | 1138 | 1121
x1 = 0.0967 | 780 | 775.6 | 771.3 | 1153 | 1135 | 1117
x1 = 0.2055 | 771.61 | 767.12 | 762.58 | 1149 | 1130 | 1111
x1 = 0.2984 | 766.18 | 761.61 | 756.99 | 1150 | 1130 | 1110
x1 = 0.4014 | 761.37 | 756.73 | 752.03 | 1153 | 1132 | 1111
x1 = 0.5007 | 757.5 | 752.79 | 748.03 | 1158 | 1136 | 1114
x1 = 0.6133 | 753.79 | 749.03 | 744.21 | 1163 | 1141 | 1118
x1 = 0.7115 | 751.2 | 746.42 | 741.58 | 1168 | 1146 | 1123
x1 = 0.8124 | 748.98 | 744.19 | 739.34 | 1175 | 1152 | 1129
x1 = 0.9073 | 747.36 | 742.58 | 737.75 | 1183 | 1159 | 1136
x1 = 0.9529 | 746.95 | 742.17 | 737.35 | 1188 | 1164 | 1141
x1 = 1 | 746.64 | 741.94 | 737.21 | 1197 | 1174 | 1150

CCCC(C)O (stereo unspecified) [pentan-2-ol]
[1]
Conditions | mass density [kg/m3] | speed of sound [m/s] | viscosity [mPa·s]
293.15 K | 809.04 | 1250 | 4.001
298.15 K | 805.01 | 1232 | 3.273
303.15 K | 800.9 | 1214 | 2.774

CCCC(C)O (stereo unspecified) [pentan-2-ol] + CC1CCCC1
[2], x2 = 0
Conditions | speed of sound [m/s]
293.15 K | 1250
298.15 K | 1232
303.15 K | 1214

CCCO [propan-1-ol]
[1]
Conditions | mass density [kg/m3] | speed of sound [m/s] | viscosity [mPa·s]
293.15 K | 803.59 | 1223 | 2.159
298.15 K | 799.58 | 1206 | 1.915
303.15 K | 795.55 | 1189 | 1.713

CCCO [propan-1-ol] + CC1CCCC1
[2], x2 = 0
Conditions | speed of sound [m/s]
293.15 K | 1223
298.15 K | 1206
303.15 K | 1189

CC(C)O [propan-2-ol]
[1]
Conditions | mass density [kg/m3] | speed of sound [m/s] | viscosity [mPa·s]
293.15 K | 785.07 | 1156 | 2.382
298.15 K | 780.9 | 1139 | 2.045
303.15 K | 776.6 | 1121 | 1.763

CC(C)O [propan-2-ol] + CC1CCCC1
[2], x2 = 0
Conditions | speed of sound [m/s]
293.15 K | 1156
298.15 K | 1139
303.15 K | 1121
